From ChEMBL document CHEMBL1141126, “Improving the antiviral efficacy and selectivity of HIV-1 reverse transcriptase inhibitor TSAO-T by the introduction of functional groups at the N-3 position” (J Med Chem, 2005)

Tests used:
CCRF-CEM [1] = assay: Cytostatic concentration required to inhibit cell proliferation in human CEM cell line; type: functional
[2] = system: Human immunodeficiency virus 2; assay: Effective concentration required to inhibit HIV-2 induced cytopathicity in human CEM cell line; type: functional, organism-based; conditions: Human immunodeficiency virus 2, CCRF-CEM
[3] = system: Human immunodeficiency virus 1; assay: Effective concentration required to inhibit HIV-1/138K induced cytopathicity in human CEM cell line; type: functional, organism-based; conditions: Human immunodeficiency virus 1, CCRF-CEM
[4] = system: Human immunodeficiency virus 2; assay: Effective concentration required to inhibit HIV-2 induced cytopathicity in human MT-4 cell line; type: functional, organism-based; conditions: Human immunodeficiency virus 2, MT4
CCRF-CEM [5] = assay: Ratio of cytostatic concentration to effective concentration in human CEM cell line; type: functional
[6] = system: Human immunodeficiency virus 1; assay: Effective concentration required to inhibit HIV-1 induced cytopathicity in human CEM cell line; type: functional, organism-based; conditions: Human immunodeficiency virus 1, CCRF-CEM
[7] = biological target: Human immunodeficiency virus type 1 reverse transcriptase (Human immunodeficiency virus 1, UniProt Q72547); assay: Inhibitory concentration required to inhibit recombinant HIV-1 reverse transcriptase
[8] = system: Human immunodeficiency virus 1; assay: Effective concentration required to inhibit HIV-1 induced cytopathicity in human MT-4 cell line; type: functional, organism-based; conditions: Human immunodeficiency virus 1, MT4

| SMILES | CC50 (CCRF-CEM [1]) | EC50 [2] | EC50 [3] | EC50 [4] | SI (CCRF-CEM [5]) | EC50 [6] | IC50 [7] | EC50 [8] |
| --- | --- | --- | --- | --- | --- | --- | --- | --- |
| Cc1cn([C@@H]2O[C@H](CO[Si](C)(C)C(C)(C)C)C3(OS(=O)(=O)C=C3N)[C@H]2O[Si](C)(C)C(C)(C)C)c(=O)[nH]c1=O (some centres undefined) | 12 µM | > 20 µM | > 10 µM | > 20 µM | 200 | – | – | – |
| Cc1cn([C@@H]2O[C@H](CO[Si](C)(C)C(C)(C)C)[C@@]3(OS(=O)(=O)C=C3N)[C@H]2O[Si](C)(C)C(C)(C)C)c(=O)n(CCc2ccccc2)c1=O | 14.2 µM | > 10 µM | > 10 µM | > 2 µM | 23 | 0.62 µM | > 500 µM | – |
| COC(=O)Cn1c(=O)c(C)cn([C@@H]2O[C@H](CO[Si](C)(C)C(C)(C)C)[C@@]3(OS(=O)(=O)C=C3N)[C@H]2O[Si](C)(C)C(C)(C)C)c1=O | > 152 µM | > 152 µM | – | > 152 µM | >253 | 0.06 µM | 3 µM | 0.11 µM |
| Cc1cn([C@@H]2O[C@H](CO[Si](C)(C)C(C)(C)C)[C@@]3(OS(=O)(=O)C=C3N)[C@H]2O[Si](C)(C)C(C)(C)C)c(=O)n(CC(=O)OCc2ccccc2)c1=O | 12.9 µM | > 5 µM | – | > 27 µM | 31 | 0.41 µM | > 250 µM | 0.54 µM |
| Cc1cn([C@@H]2O[C@H](CO[Si](C)(C)C(C)(C)C)[C@@]3(OS(=O)(=O)C=C3N)[C@H]2O[Si](C)(C)C(C)(C)C)c(=O)n(Cc2ccccc2)c1=O | 53 µM | > 50 µM | > 50 µM | > 50 µM | 294 | 0.18 µM | > 500 µM | 0.47 µM |
| Cc1cn([C@@H]2O[C@H](CO[Si](C)(C)C(C)(C)C)[C@@]3(OS(=O)(=O)C=C3N)[C@H]2O[Si](C)(C)C(C)(C)C)c(=O)n(CCC[N+](C)(C)C)c1=O.[I-] | 110 µM | > 25 µM | > 25 µM | > 25 µM | 22 | 5 µM | 11 µM | 4.9 µM |
| COCCn1c(=O)c(C)cn([C@@H]2O[C@H](CO[Si](C)(C)C(C)(C)C)[C@@]3(OS(=O)(=O)C=C3N)[C@H]2O[Si](C)(C)C(C)(C)C)c1=O | 38.8 µM | > 10 µM | > 10 µM | > 10 µM | 485 | 0.08 µM | 2.9 µM | 0.16 µM |
| Cc1cn([C@@H]2O[C@H](CO[Si](C)(C)C(C)(C)C)[C@@]3(OS(=O)(=O)C=C3N)[C@H]2O[Si](C)(C)C(C)(C)C)c(=O)n(CCBr)c1=O | 129 µM | > 50 µM | > 50 µM | > 50 µM | 4300 | 0.03 µM | > 500 µM | 0.17 µM |
| Cc1cn([C@@H]2O[C@H](CO[Si](C)(C)C(C)(C)C)[C@@]3(OS(=O)(=O)C=C3N)[C@H]2O[Si](C)(C)C(C)(C)C)c(=O)n(CC2CC2)c1=O | 60.4 µM | > 10 µM | > 50 µM | > 50 µM | 335 | 0.18 µM | > 500 µM | 0.2 µM |
| Cc1cn([C@@H]2O[C@H](CO[Si](C)(C)C(C)(C)C)[C@@]3(OS(=O)(=O)C=C3N)[C@H]2O[Si](C)(C)C(C)(C)C)c(=O)n(CCCN(C)C)c1=O | 10.4 µM | > 10 µM | > 10 µM | > 10 µM | 61 | 0.17 µM | 6.6 µM | 0.16 µM |
| Cc1cn([C@@H]2O[C@H](CO[Si](C)(C)C(C)(C)C)[C@@]3(OS(=O)(=O)C=C3N)[C@H]2O[Si](C)(C)C(C)(C)C)c(=O)n(CCO)c1=O | 11.3 µM | > 10 µM | 8 µM | > 10 µM | 282 | 0.04 µM | 3.1 µM | 0.06 µM |
| Cc1cn([C@@H]2O[C@H](CO[Si](C)(C)C(C)(C)C)[C@@]3(OS(=O)(=O)C=C3N)[C@H]2O[Si](C)(C)C(C)(C)C)c(=O)n(CCc2cccc3cc[nH]c23)c1=O | 27.6 µM | > 50 µM | > 50 µM | > 10 µM | 81 | 0.34 µM | > 500 µM | 0.96 µM |
| CNC(=O)Cn1c(=O)c(C)cn([C@@H]2O[C@H](CO[Si](C)(C)C(C)(C)C)[C@@]3(OS(=O)(=O)C=C3N)[C@H]2O[Si](C)(C)C(C)(C)C)c1=O | ≥ 250 µM | > 50 µM | 3.5 µM | > 250 µM | >=12500 | 0.02 µM | 3.1 µM | 0.03 µM |
| Cc1cn([C@@H]2O[C@H](CO[Si](C)(C)C(C)(C)C)[C@@]3(OS(=O)(=O)C=C3N)[C@H]2O[Si](C)(C)C(C)(C)C)c(=O)n(CC(=O)N(C)C)c1=O | 245 µM | > 250 µM | 4.5 µM | > 250 µM | 12250 | 0.02 µM | 3.5 µM | 0.04 µM |
| COC(=O)CCCCn1c(=O)c(C)cn([C@@H]2O[C@H](CO[Si](C)(C)C(C)(C)C)[C@@]3(OS(=O)(=O)C=C3N)[C@H]2O[Si](C)(C)C(C)(C)C)c1=O | 125 µM | ≥ 142 µM | – | > 142 µM | 1563 | 0.08 µM | 327 µM | 0.2 µM |
| CCOC(=O)CCCCCn1c(=O)c(C)cn([C@@H]2O[C@H](CO[Si](C)(C)C(C)(C)C)[C@@]3(OS(=O)(=O)C=C3N)[C@H]2O[Si](C)(C)C(C)(C)C)c1=O | 40.6 µM | > 50 µM | > 10 µM | > 50 µM | 312 | 0.13 µM | > 500 µM | 0.27 µM |
| Cc1cn([C@@H]2O[C@H](CO[Si](C)(C)C(C)(C)C)[C@@]3(OS(=O)(=O)C=C3N)[C@H]2O[Si](C)(C)C(C)(C)C)c(=O)n(CCCN(CC(=O)O)CC(=O)O)c1=O | > 250 µM | > 10 µM | > 50 µM | > 50 µM | >63 | 4 µM | > 500 µM | – |
| Cc1cn([C@@H]2O[C@H](CO[Si](C)(C)C(C)(C)C)[C@@]3(OS(=O)(=O)C=C3N)[C@H]2O[Si](C)(C)C(C)(C)C)c(=O)n(CC(N)=O)c1=O | 13.3 µM | > 10 µM | > 50 µM | > 10 µM | 266 | 0.05 µM | > 250 µM | – |
| Cc1cn([C@@H]2O[C@H](CO[Si](C)(C)C(C)(C)C)[C@@]3(OS(=O)(=O)C=C3N)[C@H]2O[Si](C)(C)C(C)(C)C)c(=O)n(CC(=O)O)c1=O | 152 µM | ≥ 155 µM | – | > 155 µM | 44 | 3.48 µM | 15 µM | – |
| Cc1cn([C@@H]2O[C@H](CO[Si](C)(C)C(C)(C)C)[C@@]3(OS(=O)(=O)C=C3N)[C@H]2O[Si](C)(C)C(C)(C)C)c(=O)n(CCCN)c1=O | 11.6 µM | > 10 µM | > 10 µM | > 10 µM | 83 | 0.14 µM | 8.1 µM | – |
| Cc1cn([C@@H]2O[C@H](CO[Si](C)(C)C(C)(C)C)[C@@]3(OS(=O)(=O)C=C3N)[C@H]2O[Si](C)(C)C(C)(C)C)c(=O)n(CCCO)c1=O | 3.86 µM | > 2 µM | – | > 2 µM | 386 | 0.01 µM | 3 µM | – |
